Source: patent publication US20250154198A1, “PEPTIDE INHIBITORS OF INTERLEUKIN-23 RECEPTOR” (Zealand Pharma A/S, priority 2021, published 2025)
Read-outs that look alike come from different tables or passages of the source. *1 amine or outer side, *2 acyl side, *3 side chain or, on linkers, in order; H or OH if unused. Where a SMILES comes first, the peptide text is derived from it. Bridges are numbered along the chain shown (N, C = ends). [ ]: non-standard residue; d: D form. 2Nal = N[C@@H](Cc1ccc2ccccc2c1)C(=O)O; αMeL = CC(C)C[C@](C)(N)C(=O)O; CH2COCH2 = O=C(C[*:1])C[*:2]

Key:
human IL-23R = target: T1, human IL-23R (Homo sapiens, UniProt Q5VWK5); experiment: Binding assay (NanoBRET displacement of fluorophore-labelled reference compound) for estimating binding affinity to human IL-23R
T1 construct: UniProtKB—Q5VWK5, amino acids 22-629; secretion signal of the plasmid (Promega N1371); expressed in transfected cells
T1 sequence (Q5VWK5 22-629): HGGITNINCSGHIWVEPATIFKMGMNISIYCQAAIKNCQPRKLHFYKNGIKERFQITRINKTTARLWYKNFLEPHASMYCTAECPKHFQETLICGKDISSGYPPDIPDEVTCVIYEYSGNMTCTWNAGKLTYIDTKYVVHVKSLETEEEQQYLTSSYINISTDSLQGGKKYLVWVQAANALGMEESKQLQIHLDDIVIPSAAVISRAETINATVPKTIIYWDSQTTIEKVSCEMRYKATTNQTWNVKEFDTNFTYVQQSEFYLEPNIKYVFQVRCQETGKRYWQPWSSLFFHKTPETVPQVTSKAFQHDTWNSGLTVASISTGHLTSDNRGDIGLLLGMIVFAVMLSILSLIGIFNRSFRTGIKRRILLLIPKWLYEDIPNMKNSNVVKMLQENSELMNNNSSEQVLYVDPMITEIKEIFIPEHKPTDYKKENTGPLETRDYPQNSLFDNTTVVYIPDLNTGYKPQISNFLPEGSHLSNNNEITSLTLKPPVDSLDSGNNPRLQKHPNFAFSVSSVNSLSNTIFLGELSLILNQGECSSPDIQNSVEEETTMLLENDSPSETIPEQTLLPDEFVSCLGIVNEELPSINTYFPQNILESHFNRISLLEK

[1] = target: IL-23 mediated phospho-STAT3 formation in DB cells (Homo sapiens, UniProt Q5VWK5); experiment: Functional inhibition of IL-23 mediated STAT3 signalling (phospho-STAT3 Tyr705 MSD) in DB cells; type: cell-based
From the text: Functional Inhibition of IL-23 Mediated STAT3 Signalling by Compounds
Upon binding of IL-23, the IL-23R forms a heterodimer signalling complex together with IL-12R β1, which through the JAK2/STAT3 pathway promotes phosphorylation of STAT3 to form phospho-STAT3.
The assay was used to quantify the functional antagonism of a compound and to rank order the inhibitor compounds according to their potency. For compounds tested in this assay, the response was normalized relative to control values to calculate the IC50 and maximal inhibitory response from a concentration response curve of the compound in presence of a fixed concentration of human IL-23.
The assay procedure was as follows. […] Following preincubation of the DB cells with inhibitor for 15 min in a cell incubator (37° C., 5% CO2), 20 μL of the prepared 3× the EC80 of hIL-23 solution was added to each well and incubated for 90 min in a cell incubator (37° C., 5% CO2). For some wells buffer only or IL-23 only corresponding to the EC80 was added to obtain readouts needed for normalization. To terminate the assay, the plate was spun at 1000 G for 5 min to pellet cells, the supernatant removed using an 8-channel manual pipette, and then added 50 μL/well Complete Lysis Buffer from the MSD STAT3 kit (Cat #K150SVD, Mesoscale) to the cell pellet. To completely lyse cells to release phospho-STAT3 for detection, the plate was shaken for 10 min at room temperature (500 rpm) sealed with aluminum foil and placed at −80° C. for a minimum of 15 min. Detection of the phospho-STAT3 level in the cell lysate from the individual wells was determined using the MSD STAT3 kit (Cat #K150SVD, Mesoscale) and read on a Meso QuickPlex SQ 120 plate reader (Mesoscale).
For data analysis raw data counts from the Meso QuickPlex SQ 120 plate reader were normalized relative to the response by the EC80 of hIL-23 alone (no compound added) and the buffer level. Compound potency (IC50) and maximal inhibitory response (% inhibition) were estimated by computer-aided curve fitting using a 4-parameter logistic (4PL) non-linear model.

[2] = Table 2-5b, DB cells, read-out: IC50 (pSTAT3)
[3] = Table 2-7b, read-out: Ki IL-23R
[4] = Table 2-7b, DB cells, read-out: IC50 (pSTAT3)
[5] = Table 3-1, read-out: Ki hIL-23R
[6] = Table 3-1, DB cells, read-out: IC50 (pSTAT3)

CC(C)C[C@@H]1NC(=O)[C@H](Cc2c[nH]c3ccccc23)NC(=O)[C@H](Cc2c[nH]c3ccccc23)NC(=O)[C@@H]2CSCC(=O)CSC[C@H](NC(=O)[C@H](CO)NC(=O)[C@@H](NC(=O)[C@@H](N)CC(=O)O)CCC(=O)NCCCC[C@@H](C(=O)N[C@@H](CCCNC(=N)N)C(N)=O)NC1=O)C(=O)N[C@@H](Cc1c[nH]c3ccccc13)C(=O)N[C@@H](CCC(N)=O)C(=O)N2 [Compound 4, H-DE(1c)SC(2a)WQC(2a)WWLK(1c)R-[NH2]] (HELM PEPTIDE1{D.E.S.C.W.Q.C.W.W.L.K.R.[am]}|CHEM1{[O=C(C[*:1])C[*:2]]}$PEPTIDE1,PEPTIDE1,2:R3-11:R3|PEPTIDE1,CHEM1,4:R3-1:R1|PEPTIDE1,CHEM1,7:R3-1:R2$$$V2.0)
potency depending on location of the amide bond in the [2,11] lactam bridge (in words) (human IL-23R; Compound 7 (amide closer to position 11) versus Compound 4 (closer to position 2), Table 2-3b): less active
IC50 ([1]; Table 2-3b, DB cells, read-out: IC50 (pSTAT3)): > 1000 nM
IC50 ([1]; Table 2-4b, DB cells, read-out: IC50 (pSTAT3)): > 1000 nM
IC50 [1, 2]: > 1000 nM

CC(=O)N[C@@H](CC(=O)O)C(=O)N[C@H]1CCCCNC(=O)CC[C@@H](C(=O)N[C@@H](CCCNC(=N)N)C(N)=O)NC(=O)[C@H](CC(C)C)NC(=O)[C@H](Cc2ccc3ccccc3c2)NC(=O)[C@H](Cc2c[nH]c3ccccc23)NC(=O)[C@@H]2CSCc3ccccc3CSC[C@H](NC(=O)[C@H](CO)NC1=O)C(=O)N[C@@H](Cc1c[nH]c3ccccc13)C(=O)N[C@@H](CCC(N)=O)C(=O)N2 [Compound 20, [Ac]-DK(1c)SC(2d)WQC(2d)W[2-Nal]LE(1c)R-[NH2]] (HELM PEPTIDE1{[ac].D.K.S.C.W.Q.C.W.[O=C([C@H](Cc1ccc2ccccc2c1)N[*:1])[*:2]].L.E.R.[am]}|CHEM1{[c1ccc(C[*:2])c(C[*:1])c1]}$PEPTIDE1,PEPTIDE1,3:R3-12:R3|PEPTIDE1,CHEM1,5:R3-1:R1|PEPTIDE1,CHEM1,8:R3-1:R2$$$V2.0)
Ki (human IL-23R; [3]): 24.6 nM
IC50 [1, 4]: 79.2 nM

CC(=O)N[C@@H](CC(=O)O)C(=O)N[C@H]1CCC(=O)NCCCC[C@@H](C(=O)N[C@@H](CCCNC(=N)N)C(N)=O)NC(=O)[C@H](CC(C)C)NC(=O)[C@H](C)NC(=O)[C@H](Cc2c[nH]c3ccccc23)NC(=O)[C@@H]2CSCC(=O)CSC[C@H](NC(=O)[C@H](CO)NC1=O)C(=O)N[C@@H](Cc1c[nH]c3ccccc13)C(=O)N[C@@H](CCC(N)=O)C(=O)N2 [Compound 15, [Ac]-DE(1c)SC(2a)WQC(2a)WALK(1c)R-[NH2]] (HELM PEPTIDE1{[ac].D.E.S.C.W.Q.C.W.A.L.K.R.[am]}|CHEM1{[O=C(C[*:1])C[*:2]]}$PEPTIDE1,PEPTIDE1,3:R3-12:R3|PEPTIDE1,CHEM1,5:R3-1:R1|PEPTIDE1,CHEM1,8:R3-1:R2$$$V2.0)
Ki (human IL-23R; [5]): > 1000 nM
IC50 [1, 6]: > 1000 nM

CC(=O)N[C@@H](CC(=O)O)C(=O)N[C@H]1CSCC(=O)CSC[C@@H](C(=O)N[C@@H](CCCNC(=N)N)C(N)=O)NC(=O)[C@](C)(CC(C)C)NC(=O)[C@H](Cc2c[nH]c3ccccc23)NC(=O)[C@H](Cc2ccc3ccccc3c2)NC(=O)[C@@H]2CSCC(=O)CSC[C@H](NC(=O)[C@H](CCC(N)=O)NC1=O)C(=O)N[C@@H](Cc1c[nH]c3ccccc13)C(=O)N[C@@H](CCC(N)=O)C(=O)N2 [Compound 62, [Ac]-DC(1a)QC(2a)WQC(2a)[2-Nal]W[2-Me-Leu]C(1a)R-[NH2]] (Ac-DCQCWQC[2Nal]W[αMeL]CR-NH2; linker 2-11, 4-7 via CH2COCH2)
Ki (human IL-23R): > 1000 nM
IC50 [1]: > 1000 nM

CC(C)C[C@@H]1NC(=O)[C@H](Cc2c[nH]c3ccccc23)NC(=O)[C@H](Cc2c[nH]c3ccccc23)NC(=O)[C@@H]2CCCCNC(=O)CC[C@H](NC(=O)[C@H](CO)NC(=O)[C@@H](NC(=O)[C@@H](N)CC(=O)O)CSCC(=O)CSC[C@@H](C(=O)N[C@@H](CCCNC(=N)N)C(N)=O)NC1=O)C(=O)N[C@@H](Cc1c[nH]c3ccccc13)C(=O)N[C@@H](CCC(N)=O)C(=O)N2 [Compound 5, H-DC(1a)SE(2c)WQK(2c)WWLC(1a)R-[NH2]] (HELM PEPTIDE1{D.C.S.E.W.Q.K.W.W.L.C.R.[am]}|CHEM1{[O=C(C[*:1])C[*:2]]}$PEPTIDE1,CHEM1,2:R3-1:R1|PEPTIDE1,CHEM1,11:R3-1:R2|PEPTIDE1,PEPTIDE1,4:R3-7:R3$$$V2.0)
Ki (human IL-23R; [5]): > 1000 nM
IC50 [1, 6]: > 1000 nM

CC(=O)N[C@@H](CC(=O)O)C(=O)N[C@H]1CCC(=O)NCCCC[C@@H](C(=O)N[C@@H](CCCNC(=N)N)C(N)=O)NC(=O)[C@H](CC(C)C)NC(=O)[C@H](Cc2c[nH]c3ccccc23)NC(=O)[C@H](C)NC(=O)[C@@H]2CSCC(=O)CSC[C@H](NC(=O)[C@H](CO)NC1=O)C(=O)N[C@@H](Cc1c[nH]c3ccccc13)C(=O)N[C@@H](CCC(N)=O)C(=O)N2 [Compound 14, [Ac]-DE(1c)SC(2a)WQC(2a)AWLK(1c)R-[NH2]] (HELM PEPTIDE1{[ac].D.E.S.C.W.Q.C.A.W.L.K.R.[am]}|CHEM1{[O=C(C[*:1])C[*:2]]}$PEPTIDE1,PEPTIDE1,3:R3-12:R3|PEPTIDE1,CHEM1,5:R3-1:R1|PEPTIDE1,CHEM1,8:R3-1:R2$$$V2.0)
Ki (human IL-23R; [5]): > 1000 nM
IC50 [1, 6]: > 1000 nM

CC(=O)N[C@@H](CC(=O)O)C(=O)N[C@H]1CCC(=O)NCCCC[C@@H](C(=O)N[C@@H](CCCNC(=N)N)C(N)=O)NC(=O)[C@H](CC(C)C)NC(=O)[C@H](Cc2c[nH]c3ccccc23)NC(=O)[C@H](Cc2c[nH]c3ccccc23)NC(=O)[C@@H]2CSCC(=O)CSC[C@H](NC(=O)[C@H](CO)NC1=O)C(=O)N[C@@H](Cc1c[nH]c3c(C)cccc13)C(=O)N[C@@H](CCC(N)=O)C(=O)N2 [Compound 16, [Ac]-DE(1c)SC(2a)[7-Me-Trp]QC(2a)WWLK(1c)R-[NH2]] (HELM PEPTIDE1{[ac].D.E.S.C.[Cc1cccc2c(C[C@H](N[*:1])C(=O)[*:2])c[nH]c12].Q.C.W.W.L.K.R.[am]}|CHEM1{[O=C(C[*:1])C[*:2]]}$PEPTIDE1,PEPTIDE1,3:R3-12:R3|PEPTIDE1,CHEM1,5:R3-1:R1|PEPTIDE1,CHEM1,8:R3-1:R2$$$V2.0)
Ki (human IL-23R; Table 2-5b, read-out: Ki IL-23R): 95.4 nM
IC50 [1, 2]: 461 nM

CC(C)C[C@@H]1NC(=O)[C@H](Cc2c[nH]c3ccccc23)NC(=O)[C@H](Cc2c[nH]c3ccccc23)NC(=O)[C@@H]2CSCC(=O)CSC[C@H](NC(=O)[C@H](CO)NC(=O)[C@@H](NC(=O)[C@@H](N)CC(=O)O)CCC(=O)NCC[C@@H](C(=O)N[C@@H](CCCNC(=N)N)C(N)=O)NC1=O)C(=O)N[C@@H](Cc1c[nH]c3ccccc13)C(=O)N[C@@H](CCC(N)=O)C(=O)N2 [Compound 9, H-DE(1c)SC(2a)WQC(2a)WWL[Dab](1c)R-[NH2]] (HELM PEPTIDE1{D.E.S.C.W.Q.C.W.W.L.[Dab].R.[am]}|CHEM1{[O=C(C[*:1])C[*:2]]}$PEPTIDE1,PEPTIDE1,2:R3-11:R3|PEPTIDE1,CHEM1,4:R3-1:R1|PEPTIDE1,CHEM1,7:R3-1:R2$$$V2.0)
Ki (human IL-23R; [5]): > 1000 nM
IC50 [1, 6]: > 1000 nM

CC(=O)N[C@@H](CC(=O)O)C(=O)N[C@H]1CCCCNC(=O)CC[C@@H](C(=O)N[C@@H](CCCNC(=N)N)C(N)=O)NC(=O)[C@H](CC(C)C)NC(=O)[C@H](Cc2ccc3ccccc3c2)NC(=O)[C@H](Cc2c[nH]c3ccccc23)NC(=O)[C@@H]2CSCc3cccc(c3)CSC[C@H](NC(=O)[C@H](CO)NC1=O)C(=O)N[C@@H](Cc1c[nH]c3ccccc13)C(=O)N[C@@H](CCC(N)=O)C(=O)N2 [Compound 21, [Ac]-DK(1c)SC(2e)WQC(2e)W[2-Nal]LE(1c)R-[NH2]] (HELM PEPTIDE1{[ac].D.K.S.C.W.Q.C.W.[O=C([C@H](Cc1ccc2ccccc2c1)N[*:1])[*:2]].L.E.R.[am]}|CHEM1{[c1cc(C[*:1])cc(C[*:2])c1]}$PEPTIDE1,PEPTIDE1,3:R3-12:R3|PEPTIDE1,CHEM1,5:R3-1:R1|PEPTIDE1,CHEM1,8:R3-1:R2$$$V2.0)
Ki (human IL-23R; [3]): 634 nM
IC50 [1, 4]: > 1000 nM
IC50 [1, 6]: > 1000 nM
